Experimental data reported in patent US12459922B2 (Gilead Sciences, Inc., priority 2022, dated 2025).

tested on: endogenous cellular STAT1 (phosphorylated at Tyr701) in NCI-H1373 cells; experiment: Phospho-STAT1 (Tyr701) LANCE Ultra TR-FRET Detection Assay; type: cell-based; settings: Homo sapiens, NCI-H1373, 48 h, phospho-STAT1 (Tyr701) induction, read-out: NH1373 pSTAT1 EC50

**Q.** How did the EC50 turn out when `O=c1[nH]ncc(N[C@H]2CCC[C@@H](Cn3ccc4cc(-c5cnc(C6CC6)cn5)c(F)cc4c3=O)C2)c1C(F)(F)F` [Example 270, 6-(5-cyclopropylpyrazin-2-yl)-7-fluoro-2-(((1R,3S)-3-((6-oxo-5-(trifluoromethyl)-1,6-dihydropyridazin-4-yl)amino)cyclohexyl)methyl)isoquinolin-1(2H)-one] was run?
**A.** 149 nM

**Q.** With `O=c1[nH]ncc(N[C@H](CCCn2cnc3cc(-c4ccc(C(F)(F)F)cn4)c(F)cc3c2=O)COC(F)F)c1C(F)(F)F` [Example 403, (R)-3-(5-(difluoromethoxy)-4-((6-oxo-5-(trifluoromethyl)-1,6-dihydropyridazin-4-yl)amino)pentyl)-6-fluoro-7-(5-(trifluoromethyl)pyridin-2-yl)quinazolin-4(3H)-one] as the compound, how does the EC50 read?
**A.** 3.65 nM

**Q.** How did the EC50 turn out when `C[C@@H](CCCn1ccc2cc(-c3ccc(C(F)(F)CO)cn3)c(F)cc2c1=O)Nc1cn[nH]c(=O)c1C(F)(F)F` [Example 75, 6-[5-(1,1-difluoro-2-hydroxy-ethyl)-2-pyridyl]-7-fluoro-2-[(4S)-4-[[6-oxo-5-(trifluoromethyl)-1H-pyridazin-4-yl]amino]pentyl]isoquinolin-1-one] was run?
**A.** 54.2 nM

**Q.** With `O=c1[nH]ncc(N[C@H]2CCC[C@@H]2CCn2cnc3cc(-c4ncc(C(F)(F)F)cn4)c(F)cc3c2=O)c1C(F)(F)F` [Example 463, 6-fluoro-3-(2-((1R,2S)-2-((6-oxo-5-(trifluoromethyl)-1,6-dihydropyridazin-4-yl)amino)cyclopentyl)ethyl)-7-(5-(trifluoromethyl)pyrimidin-2-yl)quinazolin-4(3H)-one] as the compound, how does the EC50 read?
**A.** 9.47 nM

**Q.** For `COc1cnc(-c2cc3ccn(CCC[C@H](C)Nc4cn[nH]c(=O)c4C(F)(F)F)c(=O)c3cc2F)nc1N1CCC1` [Example 186, (S)-6-(4-(azetidin-1-yl)-5-methoxypyrimidin-2-yl)-7-fluoro-2-(4-((6-oxo-5-(trifluoromethyl)-1,6-dihydropyridazin-4-yl)amino)pentyl)isoquinolin-1(2H)-one], which EC50 is on record?
**A.** 66.1 nM

**Q.** `C[C@@H](CCCn1ccc2cc(-c3ncc(C(F)(F)F)cc3N)c(F)cc2c1=O)Nc1cn[nH]c(=O)c1C(F)(F)F` [Example 328, (S)-6-(3-amino-5-(trifluoromethyl)pyridin-2-yl)-7-fluoro-2-(4-((6-oxo-5-(trifluoromethyl)-1,6-dihydropyridazin-4-yl)amino)pentyl)isoquinolin-1(2H)-one] was tested. Which EC50 did it give?
**A.** 78.6 nM

**Q.** With `C[C@@H](CCCn1cnc2cc(-c3ccc(C(F)(F)F)c(N)n3)c(F)cc2c1=O)Nc1cn[nH]c(=O)c1C(F)(F)F` [Example 212] as the compound, how does the EC50 read?
**A.** 36.6 nM

**Q.** How did the EC50 turn out when `C[C@@H](CCCn1ccc2cc(-c3cnc(Cl)c(N)n3)c(F)cc2c1=O)Nc1cn[nH]c(=O)c1C(F)(F)F` [Example 351, (S)-6-(6-amino-5-chloropyrazin-2-yl)-7-fluoro-2-(4-((6-oxo-5-(trifluoromethyl)-1,6-dihydropyridazin-4-yl)amino)pentyl)isoquinolin-1(2H)-one] was run?
**A.** 8.39 nM

**Q.** How did the EC50 turn out when `C[C@@H](CCCn1ccc2cc(-c3ncc(Cl)cn3)c(F)cc2c1=O)Nc1cn[nH]c(=O)c1C(F)(F)F` [Example 98, (S)-6-(5-chloropyrimidin-2-yl)-7-fluoro-2-(4-((6-oxo-5-(trifluoromethyl)-1,6-dihydropyridazin-4-yl)amino)pentyl)isoquinolin-1(2H)-one] was run?
**A.** 9.67 nM

**Q.** How did the EC50 turn out when `C[C@@H](CCCn1ccc2cc(-c3ncc(S(C)(=O)=O)cn3)c(F)cc2c1=O)Nc1cn[nH]c(=O)c1C(F)(F)F` [Example 84, (S)-7-fluoro-6-(5-(methylsulfonyl)pyrimidin-2-yl)-2-(4-((6-oxo-5-(trifluoromethyl)-1,6-dihydropyridazin-4-yl)amino)pentyl)isoquinolin-1(2H)-one] was run?
**A.** 263 nM

**Q.** How did the EC50 turn out when `Nc1nc(-c2cc3ncn(CCC[C@@H](Nc4cn[nH]c(=O)c4C(F)(F)F)C4CC4)c(=O)c3cc2F)cnc1C(F)(F)F` [Example 460, (R)-7-(6-amino-5-(trifluoromethyl)pyrazin-2-yl)-3-(4-cyclopropyl-4-((6-oxo-5-(trifluoromethyl)-1,6-dihydropyridazin-4-yl)amino)butyl)-6-fluoroquinazolin-4(3H)-one] was run?
**A.** 69.9 nM

**Q.** `COc1cnc(-c2cc3ccn(C[C@@H]4CCC[C@H](Nc5cn[nH]c(=O)c5C(F)(F)F)C4)c(=O)c3cc2F)nc1` [Example 492, 7-fluoro-6-(5-methoxypyrimidin-2-yl)-2-[[(1R,3S)-3-[[6-oxo-5-(trifluoromethyl)-1H-pyridazin-4-yl]amino]cyclohexyl]methyl]isoquinolin-1-one] was tested. Which EC50 did it give?
**A.** 7 nM

**Q.** With `C[C@@H](CCCn1ccc2cc(-c3ccc(C#N)c(C(F)(F)F)n3)c(F)cc2c1=O)Nc1cn[nH]c(=O)c1C(F)(F)F` [Example 295, (S)-6-(7-fluoro-1-oxo-2-(4-((6-oxo-5-(trifluoromethyl)-1,6-dihydropyridazin-4-yl)amino)pentyl)-1,2-dihydroisoquinolin-6-yl)-2-(trifluoromethyl)nicotinonitrile] as the compound, how does the EC50 read?
**A.** 2020 nM

**Q.** `Nc1nc(-c2cc3ccn(CC[C@H]4CC[C@@H]4Nc4cn[nH]c(=O)c4C(F)(F)F)c(=O)c3cc2F)ncc1C(F)(F)F` [Example 123, 6-(4-amino-5-(trifluoromethyl)pyrimidin-2-yl)-7-fluoro-2-(2-((1R,2S)-2-((6-oxo-5-(trifluoromethyl)-1,6-dihydropyridazin-4-yl)amino)cyclobutyl)ethyl)isoquinolin-1(2H)-one] was tested. Which EC50 did it give?
**A.** 6.29 nM

**Q.** For `C[C@@H](CCCn1ccc2cc(-c3ncc(C(F)F)c(NCCO)n3)c(F)cc2c1=O)Nc1cn[nH]c(=O)c1C(F)(F)F` [Example 222, (S)-6-(5-(difluoromethyl)-4-((2-hydroxyethyl)amino)pyrimidin-2-yl)-7-fluoro-2-(4-((6-oxo-5-(trifluoromethyl)-1,6-dihydropyridazin-4-yl)amino)pentyl)isoquinolin-1(2H)-one], which EC50 is on record?
**A.** 258 nM

**Q.** How did the EC50 turn out when `C[C@@H](CCCn1cnc2cc(-c3ncc(OC(F)F)c(N)n3)c(F)cc2c1=O)Nc1cn[nH]c(=O)c1C(F)(F)F` [Example 367, (S)-7-(4-amino-5-(difluoromethoxy)pyrimidin-2-yl)-6-fluoro-3-(4-((6-oxo-5-(trifluoromethyl)-1,6-dihydropyridazin-4-yl)amino)pentyl)quinazolin-4(3H)-one] was run?
**A.** 51.1 nM

**Q.** How did the EC50 turn out when `C[C@@H](CCCn1ccc2cc(-c3ncc(N4CC(O)(C(F)(F)F)C4)cn3)c(F)cc2c1=O)Nc1cn[nH]c(=O)c1C(F)(F)F` [Example 69, 7-fluoro-6-[5-[3-hydroxy-3-(trifluoromethyl)azetidin-1-yl]pyrimidin-2-yl]-2-[(4S)-4-[[6-oxo-5-(trifluoromethyl)-1H-pyridazin-4-yl]amino]pentyl]isoquinolin-1-one] was run?
**A.** 148 nM

**Q.** How did the EC50 turn out when `C[C@@H](CCCn1ccc2cc(-c3ncc(Cl)c(N)n3)c(F)cc2c1=O)Nc1cn[nH]c(=O)c1C(F)(F)F` [Example 202, (S)-6-(4-amino-5-chloropyrimidin-2-yl)-7-fluoro-2-(4-((6-oxo-5-(trifluoromethyl)-1,6-dihydropyridazin-4-yl)amino)pentyl)isoquinolin-1(2H)-one] was run?
**A.** 1.84 nM

**Q.** With `COc1cnc(-c2cc3ncn(CCC[C@H](C)Nc4cn[nH]c(=O)c4C(F)(F)F)c(=O)c3cc2F)nc1N1CC(F)(F)C1` [Example 211] as the compound, how does the EC50 read?
**A.** 28.3 nM

**Q.** For `O=c1[nH]ncc(N[C@H]2CCC[C@@H](Cn3ccc4cc(-c5ncc(C(F)F)cn5)c(F)cc4c3=O)C2)c1C(F)(F)F` [Example 226, 6-[5-(difluoromethyl)pyrimidin-2-yl]-7-fluoro-2-[[(1R,3S)-3-[[6-oxo-5-(trifluoromethyl)-1H-pyridazin-4-yl]amino]cyclohexyl]methyl]isoquinolin-1-one], which EC50 is on record?
**A.** 5.34 nM

**Q.** Which EC50 does the source give for `O=c1[nH]ncc(N[C@H](CCCn2ccc3cc(-c4nc5ccccn5n4)c(F)cc3c2=O)COC(F)F)c1C(F)(F)F` [Example 489, (R)-6-([1,2,4]triazolo[1,5-a]pyridin-2-yl)-2-(5-(difluoromethoxy)-4-((6-oxo-5-(trifluoromethyl)-1,6-dihydropyridazin-4-yl)amino)pentyl)-7-fluoroisoquinolin-1(2H)-one] here?
**A.** 0.51 nM

**Q.** Which EC50 does the source give for `O=c1[nH]ncc(N2CC[C@@H]2CCCn2cnc3cc(-c4ncc(C(F)(F)F)cn4)c(F)cc3c2=O)c1C(F)(F)F` (single isomer, unassigned) [Example 151] here?
**A.** 58.7 nM

**Q.** Which EC50 does the source give for `C[C@@H](CC(F)(F)Cn1ccc2cc(-c3ncc(C(F)(F)F)cn3)c(F)cc2c1=O)Nc1cn[nH]c(=O)c1C(F)(F)F` [Example 89, 2-[(4S)-2,2-difluoro-4-[[6-oxo-5-(trifluoromethyl)-1H-pyridazin-4-yl]amino]pentyl]-7-fluoro-6-[5-(trifluoromethyl)pyrimidin-2-yl]isoquinolin-1-one] here?
**A.** 40.5 nM

**Q.** How did the EC50 turn out when `C[C@@H](CC(=O)Cn1ccc2cc(-c3ncc(C(F)(F)F)cn3)c(F)cc2c1=O)Nc1cn[nH]c(=O)c1C(F)(F)F` [Example 90, 7-fluoro-2-[(4S)-2-oxo-4-[[6-oxo-5-(trifluoromethyl)-1H-pyridazin-4-yl]amino]pentyl]-6-[5-(trifluoromethyl)pyrimidin-2-yl]isoquinolin-1-one] was run?
**A.** 52 nM

**Q.** Which EC50 does the source give for `O=c1[nH]ncc(N[C@H](CCCn2ccc3cc(-c4ncc(C(F)(F)F)cn4)c(F)cc3c2=O)CC(F)(F)F)c1C(F)(F)F` [Example 453, (R)-7-fluoro-2-(6,6,6-trifluoro-4-((6-oxo-5-(trifluoromethyl)-1,6-dihydropyridazin-4-yl)amino)hexyl)-6-(5-(trifluoromethyl)pyrimidin-2-yl)isoquinolin-1(2H)-one] here?
**A.** 215 nM

**Q.** For `C[C@@H](CCCn1cnc2cc(-c3ncc(S(C)(=O)=O)cn3)c(F)cc2c1=O)Nc1cn[nH]c(=O)c1C(F)(F)F` [Example 126, (S)-6-fluoro-7-(5-(methylsulfonyl)pyrimidin-2-yl)-3-(4-((6-oxo-5-(trifluoromethyl)-1,6-dihydropyridazin-4-yl)amino)pentyl)quinazolin-4(3H)-one], which EC50 is on record?
**A.** 1290 nM

**Q.** For `C[C@@H](CCCn1ccc2cc(-c3cc(C(F)(F)F)c(N)cn3)c(F)cc2c1=O)Nc1cn[nH]c(=O)c1C(F)(F)F` [Example 97, (S)-6-(5-amino-4-(trifluoromethyl)pyridin-2-yl)-7-fluoro-2-(4-((6-oxo-5-(trifluoromethyl)-1,6-dihydropyridazin-4-yl)amino)pentyl)isoquinolin-1(2H)-one], which EC50 is on record?
**A.** 67.3 nM
